Experimental findings from patent US12063902B2, “Method of regenerating cannabis” (The State of Israel, Ministry of Agriculture & Rural …, priority 2018, dated 2024) are described below.

The subject of assay [1] is Cannabis leaf segment explants. Description: Somatic embryogenesis in liquid culture. The note with it: liquid Gamborg B5 medium. The assay is classed as cell-based, Cannabis sativa. On the procedure: Leaf segments from tissue culture grown on the solid medium (1.5 cm diameter and 4-5 cm long) of two Cannabis cultivars (108 and 201) were used. Innermost leaf whorls were cut obliquely (0.5-1.0 cm), injured with sharp scalpel blade in order to achieve callus initiation. Leaf segment, were used as explant for inoculation on MS medium (Murashige and Skoog 1962) supplemented with 2,4-D (4.0 mg/L) and kinetin [Kin] (0.5 mg/L). After 2-3 weeks the cultures were incubated at 25±2 C at 70-80% humidity in dark in liquid Gamborg B5 medium supplemented with 6% sucrose and different plant hormones (Table 1). The media was refreshed every three weeks.
Leaf segments from tissue culture from two different genotypes (108 and 201) have been used as primary explants. The explants were chopped to small pieces (as less as 0.5 mm) and cultivated in liquid Gamborg B5 medium supplemented with 6% sucrose and different plant hormones (Table 1). The media were refreshed every three weeks.
The initiated suspension cultures along with embryos in globular stage (FIGS. 12A-12B) were sub-cultured in the same medium for three weeks. Part of the cultures was transferred to B5 Gamborg media, supplemented with different hormones/chemicals (Table 2) to provoke embryo elongation and further development. The cultures were transferred to fresh media every three weeks.

Another assay relates to Cannabis shoots. Description: Rooting (root induction) of shoots. The assay is classed as cell-based, Cannabis sativa L. Here is the method: Shoot was cultivated individually in a tube with root induction (RI) medium composed of half strength MS medium (½MS) supplemented with 100 mg/l myo-inositol, 1 mg/l thiamine-HCl, 90 mg/l phloroglucinol, 2% sucrose (w/v), 0.25% activated charcoal (AC), with or without IBA (at different concentrations (0, 1, 2 mg/l) and 0.8% agar. Soil mixture was moistened by soaking the rooting cylinders in liquid RI medium supplemented with either 0, 1, or 2 mg/l IBA. Each treatment consisted of 10 shoots and results were scored after 4 weeks. Each experiment was repeated three times.
To obtain root induction, different concentrations of IBA were examined. The shoots were placed in a tube containing rooting medium containing 0, 1, or 2 mg/l IBA. Using this method with 2 mg/l IBA, about 85% of the shoots formed roots. However, only low percentage of these plants successfully acclimatized under greenhouse conditions. According to the second approach, shoots were cultured directly in rooting cylinders. After 4 weeks, 100% root formation was achieved, independently of the concentration of auxin used (FIGS. 5A-5C). These plants had better hardening and underwent easier acclimatization in greenhouse conditions. In-vitro clonal propagation, rooting and acclimatized plantlet production was established for 10 different Cannabis cultivars. […]

The test system of the next assay is Cannabis explants. Description: Shoot regeneration in tissue culture with "regeneration premium treatment". In kind it is cell-based, Cannabis sativa.

Method for Cannabis explants: Regeneration from Cannabis plant material using tissue culture, germinated leaves, cotyledons and hypocotyls were used for regeneration. The plants were placed on a petri dish containing 20 ml regeneration media using premium treatment with cuticle nicking enzymes: MS salt mixture, supplemented with 100 mg/l myo-inositol, 1 mg/l thiamine-HCl, 2% sucrose (w/v) at pH 5.7) with and without 5 ml pectic enzymes reaction mixture (0.25 ml 10% enzyme fungal mix of pectin and cutinase 0.25 ml 200 mM Tris-HCl).
Three youngest expanding leaves isolated from 3 to 4 weeks old plants were with and placed on regeneration medium with cuticle nicking enzymes (Murashige and Skoog (MS) medium salt mixture, containing 0.05-5.0 μM thidiazuron, supplemented with 100 mg/l myo-inositol, 1 mg/l thiamine-HCl, 2% sucrose (w/v) at pH 5.7, with 5 ml pectic enzymes reaction mixture (0.25 ml 10% cuticle nicking enzyme in 0.25 ml 200 mM Tris-HCl). The cultures were kept for 7 days in low light intensity (2.5 mmol/m2 s) followed by exposure to high light intensity (40 mmol/m2 s) at 25° C., in a 16/8 h photoperiod. Leaf explants were examined after 14 and 21 days and the percentage of explant producing shoots were calculated. […]

Take `CC(C)=CCNc1ncnc2nc[nH]c12` [2iP]: the “amount of somatic embryos generated” value in assay [1] (gyratory shaker at dark) is listed as “Low amounts of embryos”.
`O=C(Nc1ccccc1)Nc1ccnc(Cl)c1` [CPPU]: in assay [1] (10 mg/l, 6% sucrose), the somatic embryo initiation entry is on record as “essential for the embryo initiation”.
Take `O=C(O)CCCc1c[nH]c2ccccc12` [IBA, indol-3-butyric acid]: the root formation in the assay with Cannabis shoots (shoots cultured directly in rooting cylinders, after 4 weeks, independently of the concentration of auxin (0, 1, 2 mg/l IBA)) amounted to 100%. The shoots formed roots result in the assay with Cannabis shoots (tube containing rooting medium, 2 mg/l IBA) is listed as “about 85%”.
As for `C=C1C[C@]23C[C@@]1(O)CC[C@H]2[C@@]12C=C[C@H](O)[C@@](C)(C(=O)O1)[C@H]2[C@@H]3C(=O)O` [gibberellic acid], the shoot growth entry in the assay on Cannabis explants (7.0 μM gibberellic acid added to medium containing 0.5 μM thidiazuron) is “slightly increased shoot growth”.
On to `O=C(Nc1ccccc1)Nc1cnns1` [thidiazuron], for which the “quality and quantity of regenerates” value in the assay with Cannabis explants (0.5 μM thidiazuron, media treatment with cuticle nicking enzymes) is given as “better”.
